Consider one compound from ChEMBL document CHEMBL2057176, “Synthesis and in vitro evaluation of [18F](R)-FEPAQ: a potential PET ligand for VEGFR2” (Bioorg Med Chem Lett, 2012).

The structures appear in SMILES notation. The source made the active and inactive calls. No cut-off for these calls is given here.

As a reminder, the IC50 is the concentration that gives 50% inhibition.

Test [1] concerns the target T1, Vascular endothelial growth factor receptor 2 (Homo sapiens, UniProt P35968). The test can be described thus: Binding affinity to VEGFR2 in isolated human glioblastoma at 0.18 nM after 60 mins by phosphor image autoradiographic analysis. The note with it: tested as the 18F-labelled form.
Test [2] has as its target T1, Vascular endothelial growth factor receptor 2. The test is described as follows: Binding affinity to VEGFR2 in isolated human glioblastoma at 0.18 nM after 60 mins by phosphor image autoradiographic analysis in presence of ZM-323881. The settings on record: tested as the 18F-labelled form.
Test [3] shares this target. The test can be described thus: Inhibition of human VEGFR2 by fluorescence-based electrophoretic mobility-shift assay.
Test [4] has the same target. The test can be described thus: Binding affinity to VEGFR2 in isolated human glioblastoma at 0.18 nM after 60 mins by phosphor image autoradiographic analysis in presence of (R)-PAQ. The settings on record: tested as the 18F-labelled form.

T1 sequence (P35968 whole entry): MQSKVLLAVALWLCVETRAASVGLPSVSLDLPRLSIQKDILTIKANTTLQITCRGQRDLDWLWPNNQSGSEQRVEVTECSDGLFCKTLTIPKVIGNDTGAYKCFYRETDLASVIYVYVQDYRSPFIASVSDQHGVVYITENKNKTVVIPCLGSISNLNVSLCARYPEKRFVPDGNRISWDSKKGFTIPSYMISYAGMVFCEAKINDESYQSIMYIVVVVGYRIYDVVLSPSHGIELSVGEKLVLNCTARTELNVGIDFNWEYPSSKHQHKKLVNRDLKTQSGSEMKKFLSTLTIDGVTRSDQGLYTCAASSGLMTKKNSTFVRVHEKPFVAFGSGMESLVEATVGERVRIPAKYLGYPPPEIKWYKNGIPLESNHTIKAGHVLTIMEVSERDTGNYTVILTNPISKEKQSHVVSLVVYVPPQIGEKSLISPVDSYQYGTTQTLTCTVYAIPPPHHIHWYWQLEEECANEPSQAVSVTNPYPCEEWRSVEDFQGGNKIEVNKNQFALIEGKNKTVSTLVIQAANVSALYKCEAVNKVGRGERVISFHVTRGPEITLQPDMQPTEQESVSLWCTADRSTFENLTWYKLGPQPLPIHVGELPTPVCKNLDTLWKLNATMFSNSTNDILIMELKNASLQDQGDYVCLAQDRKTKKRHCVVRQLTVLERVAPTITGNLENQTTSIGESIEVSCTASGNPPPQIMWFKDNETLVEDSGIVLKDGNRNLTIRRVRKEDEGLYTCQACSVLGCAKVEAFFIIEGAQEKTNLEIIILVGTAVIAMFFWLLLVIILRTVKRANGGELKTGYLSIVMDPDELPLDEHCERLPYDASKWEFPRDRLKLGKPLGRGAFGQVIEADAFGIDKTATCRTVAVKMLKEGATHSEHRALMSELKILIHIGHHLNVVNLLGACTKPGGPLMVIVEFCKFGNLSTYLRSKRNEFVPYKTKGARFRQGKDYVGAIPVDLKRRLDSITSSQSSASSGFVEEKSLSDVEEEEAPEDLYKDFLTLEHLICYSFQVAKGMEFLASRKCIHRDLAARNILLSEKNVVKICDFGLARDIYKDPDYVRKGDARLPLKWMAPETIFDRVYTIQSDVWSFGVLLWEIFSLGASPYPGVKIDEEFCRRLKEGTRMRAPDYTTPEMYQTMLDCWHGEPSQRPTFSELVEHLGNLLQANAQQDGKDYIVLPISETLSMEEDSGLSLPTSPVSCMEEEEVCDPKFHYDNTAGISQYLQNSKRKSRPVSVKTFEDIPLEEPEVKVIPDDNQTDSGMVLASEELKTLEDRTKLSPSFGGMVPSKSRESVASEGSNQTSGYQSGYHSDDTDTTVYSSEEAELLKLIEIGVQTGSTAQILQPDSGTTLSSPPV

With `COc1cc2c(Nc3ccc(Br)cc3F)ncnc2cc1OC[C@@H]1CCCN(CCF)C1`, the result in test [1] was Active. In addition, the outcome in test [2] and in test [4] was inactive. For the same compound, in test [3], the IC50 worked out at 40 nM.
